Measured values: patent publication US6737272B2, “Methods for modulation of oocyte activation” (The Board of Trustees of the Leland Stanford Junior …, priority 1999, dated 2004)

Experiments:
[1] = system: L. pictus eggs; assay: Egg activation after insemination of injected eggs; settings: for subsequent activation of oxyHb-inhibited eggs: after insemination, ionomycin 2 μM, GTPγS 100 μM final or cGMP 50 μM final injected; for fertilization envelope elevation / egg activation after insemination: eggs injected with oxyHb 12.5 or 50 μM, or 50 μM BSA, apoHb, cyanometHb, 1:20,000 sperm dilution
Procedure: (§2) Also, co-injection of SNAP or CaM/nNOS with oxyHb. […] Subsequent activation of oxyHb-inhibited eggs by ionomycin (2 μM) or injection of either GTPγS (100 μM final) or cGMP (50 μM final).
(§3) The necessity of NO (or its equivalents) was assessed by injecting eggs with oxyHb.

[2] = system: NOS; settings: gamete homogenates; ornithine 1.5 mM, nitro-L-arginine 100 μM
Procedure: Absorbance at 585 nm was measured and normalized to total protein. […] This diaphorase activity is indicative of NOS activity. […] NOS activity is shown measured by citrulline conversion.
NADPH-dependent diaphorase activity or histochemical staining was assessed after a 24-h fixation of gametes. For activity measurements, gametes were lysed (sperm) or sonicated (eggs) in PBS with 1% NP-40 and incubated overnight in 1 mM NADPH, 0.5 mM NBT. Immunodepletion of diaphorase activity was done after size separation (>100K molecular weight cut-off (Amicon)). [^3H]arginine to [^3H]citrulline conversion of gamete homogenates was assessed after two cycles of freeze-thaw lysis (sperm) or Dounce homogenization (eggs) (in mM): 50 KCl, 10 NaCl, 1 EDTA, 5 DTT, 20 HEPES with PIC; pH 8. For inhibition experiments, gamete homogenates were treated with 20% (v/v) activated Dowex to remove endogenous arginine. […] NO determination by DAF fluorescence (490/515 nm) was done after incubating gametes in seawater containing 10 μM DAF.

[3] = system: L. pictus eggs; assay: Egg activation by microinjection (fertilization envelope elevation, pronuclear centering)
Procedure: as §2

[4] = system: S. purpuratus eggs; assay: NO production after egg activation, DAF fluorescence; type: cell-based; settings: 1 mM ionomycin, 5 min
Source text: (§1) We measure production of NO by gametes by accumulation of nitrite, an auto-oxidation product of NO, or by fluorescence changes in the NO indicator dye, diaminofluorescein (DAF). Qualitatively similar results are seen for exogenous NO production: activation of either male or female gametes results in NO accumulation in the surrounding medium (Table 1). […] Pre-treatment with inhibitors of the acrosome reaction, substantially prevents NO generation, but is triggered after subsequent addition of ionomycin (Table 2). Similarly, eggs activated by ionomycin treatment generate NO, although at lower levels than sperm (Table 1).

[5] = system: S. purpuratus eggs; assay: NO production after egg activation, nitrite accumulation; type: cell-based; settings: 1 mM ionomycin, 5 min
Source text: as §1

[6] = system: S. purpuratus sperm; assay: NO production after sperm activation, DAF fluorescence; type: cell-based; settings: 5 min, 5 mM ionomycin or egg jelly
Source text: as §1

[7] = system: S. purpuratus sperm; assay: NO production after sperm activation, nitrite accumulation; type: cell-based; settings: 5 min, 5 mM ionomycin or egg jelly, normalized to per cent acrosome reaction
Source text: as §1

[8] = system: L. pictus eggs; assay: Calcium release in eggs at fertilization measured by calcium green-2; settings: oxyHb-injected eggs (14 eggs)
Procedure: as §2, §3

[9] = system: bovine oocytes; assay: Calcium oscillations in bovine oocytes (fura-2 AM imaging); type: cell-based; settings: oxyhemoglobin injected 30 to 45 minutes before sperm factor, ~200 uM final heme
Procedure: Bovine oocytes were ordered from Bomed (2433 University Avenue, Madison, Wis. 53705-3835). They collect the oocytes from the ovaries of slaughtered cows and place them immediately in maturation media to be shipped overnight.
Oocytes were matured overnight and used within 24-28 hours of collection. Oocytes were washed briefly three times in TL-HEPES media and then denuded by vortexing for 3 minutes in TL-HEPES containing 0.2% hyaluronidase. Denuded oocytes were subsequently washed in TL-HEPES and loaded with fura-2 AM by incubation at 37° C. for 15 to 30 minutes. Oocytes were attached to imaging dishes (Biopteks) using 50 μg/ml poly-D-lysine and imaged using 350/380 nm excitation and 510 nm emission filters on a Zeiss Axiovert S100 microscope and fluorescence intensity quantified using Metafluor 4.1 (Universal Imaging).
SNAP ([…]), an NO donor was synthesized prior to use by the method of Fehsel et al. (1996) Meth. Enzymol. 269:426-434. NO release was accomplished by bath addition of SNAP. Calcium release could be effectuated by addition of SNAP at varying concentrations (0.5 mM to 5 mM).
Sperm factor was prepared by the method of Wu et al. (Wu et al., 1997) and injected by a Narishige syringe microinjector to ˜2% oocyte volume. […] Calcium levels were monitored as detailed above.

Nc1nc2c(ncn2[C@@H]2O[C@H](COP(=O)(O)OP(=O)(O)OP(O)(O)=S)[C@@H](O)[C@H]2O)c(=O)[nH]1 [GTPS]
subsequent activation of oxyHb-inhibited eggs [1]: elevate fertilization envelopes

N=C(NCCC[C@H](N)C(=O)O)N[N+](=O)[O-] [NG-nitro-L-arginine]
effect on citrulline conversion activity [2]: greatly suppresses

[N]=O [NO, nitric oxide]
egg activation by bath application ([3]; bath application, not injected): ineffective

Nc1nc2c(ncn2[C@@H]2O[C@@H]3COP(=O)(O)O[C@H]3[C@H]2O)c(=O)[nH]1 [cGMP]
subsequent activation of oxyHb-inhibited eggs [1]: elevate fertilization envelopes

C[C@H](CCC(=O)O)C[C@H](C)C[C@H](C)C(=O)/C=C(\O)[C@H](C)C[C@H](C)C/C=C/[C@@H](C)[C@@H](O)[C@@H](C)[C@@H](O)C[C@@H]1CC[C@@](C)([C@H]2CC[C@@](C)([C@@H](C)O)O2)O1 [ionomycin]
DAF Fluorescence ([4]; Eggs (1%, v/v)): 56 ± 10 arbitrary units | DAF Fluorescence ([4]; Eggs (2%, v/v)): 76 ± 8 arbitrary units | DAF Fluorescence ([4]; Eggs (5%, v/v)): 112 ± 6 arbitrary units | subsequent activation of oxyHb-inhibited eggs [1]: elevate fertilization envelopes | Nitrite ([5]; Eggs (1%, v/v)): 64 ± 4 pmol | Nitrite ([5]; Eggs (2%, v/v)): 82 ± 9 pmol | Nitrite ([5]; Eggs (5%, v/v)): 141 ± 10 pmol | DAF Fluorescence ([6]; Sperm (1 μl)): 103 ± 13 arbitrary units | DAF Fluorescence ([6]; Sperm (5 ml)): 543 ± 35 arbitrary units | DAF Fluorescence ([6]; Sperm (10 ml)): 910 ± 93 arbitrary units | Nitrite ([7]; Sperm (1 μl)): 75 ± 30 pmol | Nitrite ([7]; Sperm (5 ml)): 153 ± 15 pmol | Nitrite ([7]; Sperm (10 ml)): 283 ± 15 pmol

bovine serum albumin: a nitrosylable protein
fertilization envelope elevation / egg activation after insemination [1]: not significantly affected

oxyHb: oxyhemoglobin, a physiological scavenger of NO
fertilization envelope elevation / egg activation after insemination [1]: dose-dependently inhibited | pronuclear centering and first cell division ([1]; oxyHb-injected eggs after insemination): 0 out of 15 | egg activation by SNAP or CaM/nNOS when co-injected with oxyHb ([3]; co-injection): does not occur | peak Ca2+ post-fertilization ([8]; control 1.4±0.2 μM): 540 ± 95 nM | resting Ca2+ ([8]; control 240±30 nM): 280 ± 65 nM | effect on sperm factor induced calcium oscillations [9]: inhibition

recombinant nNOS with calmodulin (CaM): recombinant CaM-nNOS complexes formed by mixing CaM with nNOS
pronuclear centering (eggs exhibiting a full fertilization envelope) ([3]; injected eggs): 13 out of 13

B1: nNOS: recombinant neuronal nitric oxide synthase from Stratagene (protein, UniProt P29475 1-1434, looked up)
Nitric oxide synthase 1: MEDHMFGVQQIQPNVISVRLFKRKVGGLGFLVKERVSKPPVIISDLIRGGAAEQSGLIQAGDIILAVNGRPLVDLSYDSALEVLRGIASETHVVLILRGPEGFTTHLETTFTGDGTPKTIRVTQPLGPPTKAVDLSHQPPAGKEQPLAVDGASGPGNGPQHAYDDGQEAGSLPHANGLAPRPPGQDPAKKATRVSLQGRGENNELLKEIEPVLSLLTSGSRGVKGGAPAKAEMKDMGIQVDRDLDGKSHKPLPLGVENDRVFNDLWGKGNVPVVLNNPYSEKEQPPTSGKQSPTKNGSPSKCPRFLKVKNWETEVVLTDTLHLKSTLETGCTEYICMGSIMHPSQHARRPEDVRTKGQLFPLAKEFIDQYYSSIKRFGSKAHMERLEEVNKEIDTTSTYQLKDTELIYGAKHAWRNASRCVGRIQWSKLQVFDARDCTTAHGMFNYICNHVKYATNKGNLRSAITIFPQRTDGKHDFRVWNSQLIRYAGYKQPDGSTLGDPANVQFTEICIQQGWKPPRGRFDVLPLLLQANGNDPELFQIPPELVLEVPIRHPKFEWFKDLGLKWYGLPAVSNMLLEIGGLEFSACPFSGWYMGTEIGVRDYCDNSRYNILEEVAKKMNLDMRKTSSLWKDQALVEINIAVLYSFQSDKVTIVDHHSATESFIKHMENEYRCRGGCPADWVWIVPPMSGSITPVFHQEMLNYRLTPSFEYQPDPWNTHVWKGTNGTPTKRRAIGFKKLAEAVKFSAKLMGQAMAKRVKATILYATETGKSQAYAKTLCEIFKHAFDAKVMSMEEYDIVHLEHETLVLVVTSTFGNGDPPENGEKFGCALMEMRHPNSVQEERKSYKVRFNSVSSYSDSQKSSGDGPDLRDNFESAGPLANVRFSVFGLGSRAYPHFCAFGHAVDTLLEELGGERILKMREGDELCGQEEAFRTWAKKVFKAACDVFCVGDDVNIEKANNSLISNDRSWKRNKFRLTFVAEAPELTQGLSNVHKKRVSAARLLSRQNLQSPKSSRSTIFVRLHTNGSQELQYQPGDHLGVFPGNHEDLVNALIERLEDAPPVNQMVKVELLEERNTALGVISNWTDELRLPPCTIFQAFKYYLDITTPPTPLQLQQFASLATSEKEKQRLLVLSKGLQEYEEWKWGKNPTIVEVLEEFPSIQMPATLLLTQLSLLQPRYYSISSSPDMYPDEVHLTVAIVSYRTRDGEGPIHHGVCSSWLNRIQADELVPCFVRGAPSFHLPRNPQVPCILVGPGTGIAPFRSFWQQRQFDIQHKGMNPCPMVLVFGCRQSKIDHIYREETLQAKNKGVFRELYTAYSREPDKPKKYVQDILQEQLAESVYRALKEQGGHIYVCGDVTMAADVLKAIQRIMTQQGKLSAEDAGVFISRMRDDNRYHEDIFGVTLRTYEVTNRLRSESIAFIEESKKDTDEVFSS
injected amount yielding activation ([3]; recombinant nNOS, with CaM): ~0.0075 pg
